Results: article PMC7516806, “Hybrid Antimicrobial Peptide Targeting Staphylococcus aureus and Displaying Anti-infective Activity in a Murine Model” (Frontiers in Microbiology, 2020)
In brackets after ≈: the same amount, converted by molar mass. Positions of bridges follow the written chain, without caps; N, C: chain ends. Residues, ends and D or L forms follow the SMILES beside them.

Experiments:
[1] = tested on: MRSA 43300; type: cell-based, Staphylococcus aureus; conditions: MHB, 2–7 × 10^5 CFU/ml, 37°C, 24 h, no turbidity, at least three independent repeats
Source text: (§1) The experiment was repeated at least three times independently.

[2] = tested on: S. aureus 29213; experiment: Cytoplasmic membrane depolarization, diSC3-5; type: cell-based, Staphylococcus aureus; conditions: 0.4 μM diSC3-5, 100 mM KCl, ex 622 nm, em 670 nm
Experimental: The dye diSC3-5 was employed to assay cytoplasmic membrane depolarization activities ([Shao et al., 2018]). S. aureus 29213 was diluted to an OD600 = 0.05 after washing three times with buffer (5 mM HEPES, 5 mM glucose, pH 7.4) when the bacteria grew to mid-log phase. Then, diSC3-5 at a final concentration of 0.4 μM was added into the medium and incubated for 1–1.5 h. The final concentration of 100 mM KCl was then added to the solution for 15 min. The peptides were added to 12-well plates, which were filled with 2 mL of cell suspension. An F-4500 fluorescence spectrophotometer (Hitachi, Japan) was employed to measure the fluorescence value at an excitation wavelength of 622 nm and an emission wavelength of 670 nm. Maximal augmentation was monitored, and the fluorescence of the mixture of bacteria and dye served as the blank control.

[3] = tested on: RAW 264.7 cells; experiment: Cytotoxicity, MTT dye reduction assay; type: cell-based, murine
Experimental: The cytotoxicity of peptides was determined by healthy human erythrocytes and the murine macrophage cell line RAW 264.7 via a hemolysis assay and MTT dye reduction assay, respectively ([Wang et al., 2018]). In the hemolysis assay, fresh hRBCs from healthy people were centrifuged for 5 min at 1,000 × g and then washed three times with PBS (pH = 7.2). The 100 μL erythrocyte suspension and peptides were incubated for 1.5 h in an incubator at 37°C. The 96-well plates were centrifuged at 1,000 × g for 5 min, and the supernatants were carefully aspirated. The absorbance at 570 nm indicated the leakage of hemoglobin. The hRBCs in the PBS sample was used as the negative control, and 0.1% Triton X-100 addition served as the positive control. In the MTT dye reduction assay, 1.0–2.0 × 10^5 cells were plated in 96-well plates and then treated with various concentrations of peptides for 4 h at 37°C in a 5% CO2 incubator. Subsequently, 50 μL of MTT was added to the plated cells at a final concentration of 0.5 mg/mL and incubated for 4 h. Then, the cells were centrifuged at 1000 × g for 5 min, and the supernatants were discarded. Formazan crystals were dissolved in 150 μL of DMSO, and the OD570 nm was measured using a microplate reader (TECAN GENios F129004; TECAN, Austria). The experiment was repeated three times independently.

[4] = tested on: L. plantarum 8014; experiment: MIC, modified microtiter dilution; type: cell-based, Lactobacillus plantarum; conditions: 2–7 × 10^5 CFU/ml, 37°C, 24 h, no turbidity, at least three independent repeats
Source text: as §1

[5] = tested on: S. aureus 29213; experiment: Mouse model of subcutaneous infection; type: in vivo, ICR mice; conditions: 80× MIC
Experimental: To assess the antimicrobial activity of the peptide in vivo, a mouse model of subcutaneous infection was used ([Huang et al., 2011a]; [Omolo et al., 2017]). Female Institute for Cancer Research (ICR) mice (SPF, 20–25 g) were purchased from WeiTonglihua Co., Ltd. (Beijing, China), with eight animals per group. The mice were shaved on their backs and disinfected. S. aureus 29213 (100 μL) at a concentration of 1 × 10^8 CFU/mL was injected into the superficial skin of the mice. The mice were divided into four groups (n = 4), as follows: S. aureus + saline, S. aureus + S2 (80× MIC, 100 μL), S. aureus + vancomycin (Van) (80× MIC, 100 μL), and saline. S2, vancomycin, and saline were injected at the same site 1 h after infection. The mice were monitored over 24 h in an environmentally controlled room at 25 ± 1°C and 55 ± 5% relative humidity with a 12 h light/dark cycle.
To image the infected skin tissues, the mice were euthanized 24 h after the injection of S. aureus. Samples were fixed in 4% buffered paraformaldehyde and subjected to hematoxylin/eosin (HE) staining. The antimicrobial activity in vivo was determined by colony counting of infected skin samples. Skin homogenates were serially diluted in saline and incubated at 37°C for 24 h.

[6] = tested on: S. pullorum 7913; experiment: MIC, modified microtiter dilution; type: cell-based, Salmonella pullorum; conditions: MHB, 2–7 × 10^5 CFU/ml, 37°C, 24 h, no turbidity, at least three independent repeats
Source text: as §1

CC(C)C[C@H](NC(=O)[C@H](CC(C)C)NC(=O)[C@H](Cc1c[nH]c2ccccc12)NC(=O)[C@H](Cc1c[nH]c2ccccc12)NC(=O)[C@H](Cc1c[nH]c2ccccc12)NC(=O)[C@H](CCCNC(=N)N)NC(=O)[C@@H]1CSSC[C@H](N)C(=O)N[C@@H](C)C(=O)N[C@@H](CO)C(=O)N[C@@H](Cc2ccc(O)cc2)C(=O)N[C@@H](Cc2ccccc2)C(=O)N1)C(N)=O [Peptide S2] (H-CASYFCRWWWLL-NH2; disulfide 1-6; N-terminus assumed)
MIC MRSA 43300 [1]: 8 µM (≈ 13 µg/mL) | cytoplasmic membrane depolarization (diSC3-5 fluorescence) [2]: rapid fluorescence intensity increase | killing activity against RAW 264.7 cells [3]: no killing activity against RAW 264.7 cells | RAW 264.7 cell survival rate ([3]; highest concentration of 128 μM, 4 h, three independent repeats): 105% | MIC L. plantarum 8014 [4]: >64 µM | decrease in bacterial colonies at infection site versus control group ([5]; 100 μL injected at the infected site 1 h after infection, skin homogenate colony count after 24 h, P < 0.01): 10 fold | ulceration (lesion) size, length × width ([5]; 100 μL, 1 h after infection): significantly reduced ulceration sizes | MIC S. pullorum 7913 [6]: >64 µM
